Values of other authors, collected in US20080213381A1, “Oral Drug Delivery System” (PHARMACEUTICAL INDUSTRIES LIMITED, priority 2005, published 2008).

[1] = oral, conventional immediate release dosage form of venlafaxine hydrochloride

Compound: COc1ccc(C(CN(C)C)C2(O)CCCCC2)cc1 (stereo not drawn) [venlafaxine]
- time after oral administration at which plasma venlafaxine level is sub-therapeutic (conventional immediate release dosage form): around 12 hours
- time at which peak plasma concentration of the active metabolite is achieved [1]: 4 h
- time at which peak plasma concentration of venlafaxine is achieved [1]: 2 h
